Laboratory results reported in article PMC6524645 (Cell, 2018).

Tests used:
[1] = biological target: P. syringae SelO (Pseudomonas syringae group genomosp. 3, UniProt Q87VB1); assay: X-ray crystal structure, […] Å; format: binding; conditions: active site, nucleotide flipped; Mg2+ and Ca2+ bound; pH 8; 20 °C
[2] = biological target: the molecule itself; assay: non-reducing SDS-PAGE

Sequence of P. syringae SelO (Q87VB1 whole entry): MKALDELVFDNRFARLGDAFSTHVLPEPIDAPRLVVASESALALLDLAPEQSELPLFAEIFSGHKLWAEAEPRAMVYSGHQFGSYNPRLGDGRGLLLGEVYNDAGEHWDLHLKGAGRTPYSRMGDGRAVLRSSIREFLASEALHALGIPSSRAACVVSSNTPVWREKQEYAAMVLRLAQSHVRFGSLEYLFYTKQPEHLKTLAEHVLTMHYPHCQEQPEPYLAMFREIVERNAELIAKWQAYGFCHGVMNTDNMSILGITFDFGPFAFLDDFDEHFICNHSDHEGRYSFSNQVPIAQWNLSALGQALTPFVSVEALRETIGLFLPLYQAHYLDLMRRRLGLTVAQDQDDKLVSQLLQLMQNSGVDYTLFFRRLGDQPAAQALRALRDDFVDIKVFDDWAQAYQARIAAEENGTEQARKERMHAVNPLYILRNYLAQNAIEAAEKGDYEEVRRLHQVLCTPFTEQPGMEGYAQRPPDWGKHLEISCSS

| Molecule | X-ray crystal structure, 2.27 Å [1] | stoichiometry N [2] |
| --- | --- | --- |
| Nc1ncnc2c1ncn2[C@@H]1O[C@H](COP(=O)(O)OP(=O)(O)NP(=O)(O)O)[C@@H](O)[C@H]1O [AMP-PNP] | bound to an ATP derivative AMP-PNP | – |
| E. coli SelO (ydiU) C272A mutant (enzyme, UniProt P77649 1-478, looked up, intermolecular disulfide between the two copies (cysteine not named)) MTLSFVTRWRDELPETYTALSPTPLNNARLIWHNTELANTLSIPSSLFKNGAGVWGGEALLPGMSPLAQVYSGHQFGVWAGQLGDGRGILLGEQLLADGTTMDWHLKGAGLTPYSRMGDGRAVLRSTIRESLASEAMHYLGIPTTRALSIVTSDSPVYRETAEPGAMLMRVAPSHLRFGHFEHFYYRRESEKVRQLADFAIRHYWSHLADDEDKYRLWFSDVVARTASLIAQWQTVGFAHGVMNTDNMSLLGLTLDYGPFGFLDDYEPGFIANHSDHQGRYSFDNQPAVALWNLQRLAQTLSPFVAVDALNEALDSYQQVLLTHYGERMRQKLGFMTEQKEDNALLNELFSLMARERSDYTRTFRMLSLTEQHSAASPLRDEFIDRAAFDDWFARYRGRLQQDEVSDSERQQLMQSVNPALVLRNWLAQRAIEAAEKGDMTELHRLHEALRNPFSDRDDDYVSRPPDWGKRLEVSCSS | – | 2 |
